Measurements taken from patent US8088815B2, “Spiroindolinone pyrrolidines” (Hoffman-La Roche Inc., priority 2009, dated 2012).
pIC50: −log10 of the molar value.

Each compound was assayed against interaction between p53 and MDM2 proteins (Homo sapiens, UniProt Q00987) (assay: HTRF assay of inhibition of the p53-MDM2 interaction (GST-MDM2 / biotinylated p53 peptide)). Conditions: recombinant GST-tagged MDM2 and biotinylated p53 peptide, bsa:0.02%.
Format: binding

Sequence of interaction between p53 and MDM2 proteins (Q00987 whole entry): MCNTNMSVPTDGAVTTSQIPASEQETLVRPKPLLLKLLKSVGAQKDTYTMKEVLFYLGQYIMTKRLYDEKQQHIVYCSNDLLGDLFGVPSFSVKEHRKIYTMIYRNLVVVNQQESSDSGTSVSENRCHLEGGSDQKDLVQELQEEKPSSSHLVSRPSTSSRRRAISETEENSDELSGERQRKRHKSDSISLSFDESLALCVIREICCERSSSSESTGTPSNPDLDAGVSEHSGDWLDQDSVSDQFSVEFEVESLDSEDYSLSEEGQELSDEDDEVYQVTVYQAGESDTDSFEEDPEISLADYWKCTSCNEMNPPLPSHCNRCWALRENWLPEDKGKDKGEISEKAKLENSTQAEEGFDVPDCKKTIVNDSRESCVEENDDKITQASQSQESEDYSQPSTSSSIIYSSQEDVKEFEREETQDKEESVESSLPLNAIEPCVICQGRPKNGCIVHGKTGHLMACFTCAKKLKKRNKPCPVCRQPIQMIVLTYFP

COc1cc(OCCO)ccc1NC(=O)[C@@H]1N[C@@H](CC(C)(C)C)[C@@]2(C(=O)Nc3cc(Cl)ccc32)[C@H]1c1cccc(Cl)c1F [Example 134, chiral (2′S,3′R,4′S,5′R)-6-chloro-4′-(3-chloro-2-fluoro-phenyl)-2′-(2,2-dimethyl-propyl)-2-oxo-1,2-dihydro-spiro[indole-3,3′-pyrrolidine]-5′-carboxylic acid [4-(2-hydroxy-ethoxy)-2-methoxy-phenyl]-amide] and CC(C)(C)C[C@@H]1N[C@@H](C(=O)Nc2ccc(C#N)cc2)[C@H](c2cccc(Cl)c2F)[C@]12C(=O)Nc1cc(Cl)ccc12 [Example 137, chiral (2′S,3′R,4′S,5′R)-6-chloro-4′-(3-chloro-2-fluoro-phenyl)-2′-(2,2-dimethyl-propyl)-2-oxo-1,2-dihydro-spiro[indole-3,3′-pyrrolidine]-5′-carboxylic acid (4-cyano-phenyl)-amide] are the same in pIC50: 8.30 for the first, 8.30 for the second.

Compared with CC(C)(C)C[C@@H]1N[C@@H](C(=O)Nc2ccccc2)[C@H](c2cccc(Cl)c2F)[C@]12C(=O)Nc1cc(Cl)ccc12 [Example 147, chiral (2′S,3′R,4′S,5′R)-6-chloro-4′-(3-chloro-2-fluoro-phenyl)-2′-(2,2-dimethyl-propyl)-2-oxo-1,2-dihydro-spiro[indole-3,3′-pyrrolidine]-5′-carboxylic acid phenylamide], COc1cc(C(N)=O)ccc1NC(=O)[C@@H]1N[C@@H](CC(C)(C)C)[C@@]2(C(=O)Nc3cc(Cl)ccc32)[C@H]1c1cc(F)cc(Cl)c1 [Example 148, chiral (2′S,3′R,4′R,5′R)-6-chloro-4′-(3-chloro-5-fluoro-phenyl)-2′-(2,2-dimethyl-propyl)-2-oxo-1,2-dihydro-spiro[indole-3,3′-pyrrolidine]-5′-carboxylic acid (4-carbamoyl-2-methoxy-phenyl)-amide] is 0.34 log units higher in pIC50: 7.96 for the first, 8.30 for the second.

Compared with COc1cc(S(=O)(=O)N2CCOCC2)ccc1NC(=O)[C@@H]1N[C@@H](CC(C)(C)C)[C@@]2(C(=O)Nc3cc(Cl)ccc32)[C@H]1c1cccc(Cl)c1F [Example 154, chiral (2′S,3′R,4′S,5′R)-6-chloro-4′-(3-chloro-2-fluoro-phenyl)-2′-(2,2-dimethyl-propyl)-2-oxo-1,2-dihydro-spiro[indole-3,3′-pyrrolidine]-5′-carboxylic acid [2-methoxy-4-(morpholine-4-sulfonyl)-phenyl]-amide], COc1cc(OC2CCOCC2)ccc1NC(=O)[C@@H]1N[C@@H](CC(C)(C)C)[C@@]2(C(=O)Nc3cc(Cl)ccc32)[C@H]1c1cccc(Cl)c1F [Example 157, chiral (2′S,3′R,4′S,5′R)-6-chloro-4′-(3-chloro-2-fluoro-phenyl)-2′-(2,2-dimethyl-propyl)-2-oxo-1,2-dihydro-spiro[indole-3,3′-pyrrolidine]-5′-carboxylic acid [2-methoxy-4-(tetrahydro-pyran-4-yloxy)-phenyl]-amide] is 0.40 log units lower in pIC50: 8.40 for the first, 8.00 for the second. The first is the more potent here.

Going from COc1cc(CC(=O)OC(C)(C)C)ccc1NC(=O)[C@@H]1N[C@@H](CC(C)(C)C)[C@@]2(C(=O)Nc3cc(Cl)ccc32)[C@H]1c1cccc(Cl)c1F [Example 159, chiral (4-{[(2′S,3′R,4′S,5′R)-6-chloro-4′-(3-chloro-2-fluoro-phenyl)-2′-(2,2-dimethyl-propyl)-2-oxo-1,2-dihydro-spiro[indole-3,3′-pyrrolidine]-5′-carbonyl]amino}-3-methoxy-phenyl)-acetic acid tert-butyl ester] to COc1cc(CC(=O)O)ccc1NC(=O)[C@@H]1N[C@@H](CC(C)(C)C)[C@@]2(C(=O)Nc3cc(Cl)ccc32)[C@H]1c1cccc(Cl)c1F [Example 160, chiral (4-{[(2′S,3′R,4′S,5′R)-6-chloro-4′-(3-chloro-2-fluoro-phenyl)-2′-(2,2-dimethyl-propyl)-2-oxo-1,2-dihydro-spiro[indole-3,3′-pyrrolidine]-5′-carbonyl]-amino}-3-methoxy-phenyl)-acetic acid], the pIC50 rises from 7.85 to 8.30 (0.45 log units).

Going from COc1cc(CC(N)=O)ccc1NC(=O)[C@@H]1N[C@@H](CC(C)(C)C)[C@@]2(C(=O)Nc3cc(Cl)ccc32)[C@H]1c1cccc(Cl)c1F [Example 161, chiral (2′S,3′R,4′S,5′R)-6-chloro-4′-(3-chloro-2-fluoro-phenyl)-2′-(2,2-dimethyl-propyl)-2-oxo-1,2-dihydro-spiro[indole-3,3′-pyrrolidine]-5′-carboxylic acid (4-carbamoylmethyl-2-methoxy-phenyl)-amide] to COc1cc(OCCSC)ccc1NC(=O)[C@@H]1N[C@@H](CC(C)(C)C)[C@@]2(C(=O)Nc3cc(Cl)ccc32)[C@H]1c1cccc(Cl)c1F [Example 169, chiral (2′S,3′R,4′S,5′R)-6-chloro-4′-(3-chloro-2-fluoro-phenyl)-2′-(2,2-dimethyl-propyl)-2-oxo-1,2-dihydro-spiro[indole-3,3′-pyrrolidine]-5′-carboxylic acid [2-methoxy-4-(2-methylsulfanyl-ethoxy)-phenyl]-amide], the pIC50 falls from 8.40 to 7.96 (0.44 log units).

COc1cc(OCCS(C)(=O)=O)ccc1NC(=O)[C@@H]1N[C@@H](CC(C)(C)C)[C@@]2(C(=O)Nc3cc(Cl)ccc32)[C@H]1c1cccc(Cl)c1F [Example 170, chiral (2′S,3′R,4′S,5′R)-6-chloro-4′-(3-chloro-2-fluoro-phenyl)-2′-(2,2-dimethyl-propyl)-2-oxo-1,2-dihydro-spiro[indole-3,3′-pyrrolidine]-5′-carboxylic acid [4-(2-methanesulfonyl-ethoxy)-2-methoxy-phenyl]-amide] and COc1cc(OCCCS(C)(=O)=O)ccc1NC(=O)[C@@H]1N[C@@H](CC(C)(C)C)[C@@]2(C(=O)Nc3cc(Cl)ccc32)[C@H]1c1cccc(Cl)c1F [Example 181, chiral (2′S,3′R,4′S,5′R)-6-chloro-4′-(3-chloro-2-fluoro-phenyl)-2′-(2,2-dimethyl-propyl)-2-oxo-1,2-dihydro-spiro[indole-3,3′-pyrrolidine]-5′-carboxylic acid [4-(3-methanesulfonyl-propoxy)-2-methoxy-phenyl]-amide] are within 0.2 log units of each other in pIC50: 8.15 for the first, 8.22 for the second.

COc1cc(C(=O)O)c(F)cc1NC(=O)[C@@H]1N[C@@H](CC(C)(C)C)[C@@]2(C(=O)Nc3cc(Cl)ccc32)[C@H]1c1cccc(Cl)c1F [Example 221, chiral 4-{[(2′S,3′R,4′S,5′R)-6-chloro-4′-(3-chloro-2-fluoro-phenyl)-2′-(2,2-dimethyl-propyl)-2-oxo-1,2-dihydro-spiro[indole-3,3′-pyrrolidine]-5′-carbonyl]amino}-2-fluoro-5-methoxy-benzoic acid] and CC(C)(C)C[C@@H]1N[C@@H](C(=O)Nc2ccc(CCC(=O)O)cc2)[C@H](c2cccc(Cl)c2F)[C@]12C(=O)Nc1cc(Cl)ccc12 [Example 222, chiral 3-(4-{[(2′S,3′R,4′S,5′R)-6-chloro-4′-(3-chloro-2-fluoro-phenyl)-2′-(2,2-dimethyl-propyl)-2-oxo-1,2-dihydro-spiro[indole-3,3′-pyrrolidine]-5′-carbonyl]-amino}-phenyl)-propionic acid] are the same in pIC50: 8.30 for the first, 8.30 for the second.

First: COc1cc(C(=O)NC#N)ccc1NC(=O)[C@@H]1N[C@@H](CC(C)(C)C)[C@@]2(C(=O)Nc3cc(Cl)ccc32)[C@H]1c1cccc(Cl)c1F [Example 223, chiral (2′S,3′R,4′S,5′R)-6-chloro-4′-(3-chloro-2-fluorophenyl)-N-(4-(cyanocarbamoyl)-2-methoxyphenyl)-2′-(2,2-dimethyl-propyl)-2-oxospiro[indoline-3,3′-pyrrolidine]-5′-carboxamide]
Second: rac-4-{[(2′S,3′R,4′R,5′R)-6-chloro-4′-(3-chloro-4-fluoro-phenyl)-2′-(2,2-dimethyl-propyl)-2-oxo-1,2-dihydro-spiro[indole-3,3′-pyrrolidine]-5′-carbonyl]-amino}-3-methoxy-benzoic acid [Example 127]
The pIC50 of the first is 0.23 log units higher: 8.15 for the first, 7.92 for the second.
